Measured values: patent US10149473B2, “Aminoindanes amides having a high fungicidal activity and their phytosanitary compositions” (STITCHING I-F PRODUCT COLLABORATION, priority 2010, dated 2018)

Key:
Erysiphe graminis = experiment: Fungicidal activity in preventive application (5 days) against Erysiphe graminis on wheat; type: in vivo, Erysiphe graminis on wheat (Salgemma variety); conditions: 125 ppm, leaf spray, infection 5 days after treatment, evaluation after 12 days, percentage scale 100 = healthy plant, 0 = completely infected plant; for Activity NT (parts which had developed during the test): non-treated parts (NT)
Method: Determination of the Fungicidal Activity in Preventive Application (5 Days) Against Erysiphe graminis on Wheat.
(§1) Leaves of wheat plants of the Salgemma variety, grown in pots in a conditioned environment kept at 20° C. and 70% of relative humidity (R.H.), were treated by spraying on both sides of the leaves with the compounds under examination, dispersed in hydroacetonic solutions at 20% by volume of acetone.
After remaining 5 days in a conditioned environment, the plants were infected under dry conditions by shaking over them, in order to distribute the inoculum, plants previously infected by Erysiphe graminis.
The plants were then maintained in the same cell, in a humidity-saturated environment and at a temperature ranging from 18 to 24° C. for 12 days.
At the end of this period, the external symptoms of the pathogen appeared and it was therefore possible to proceed with the evaluation of the intensity of the infection, on both the parts treated directly with the products (T), and also on the parts which had developed during the test (NT), by means of a visible percentage evaluation scale of the area of affected leafs; the scale comprises, as extremes, the value 100 (healthy plant) and the value 0 (completely infected plant).

wheat plants = experiment: Phytotoxicity (percentage of leaf necrosis) induced on wheat plants; type: in vivo, wheat (Salgemma variety); conditions: 125 ppm on wheat, scale 0 = completely healthy plant to 100 = completely necrotized plant
Method: as §1
At the same time, the phytotoxicity was evaluated (percentage of leaf necrosis) induced on the wheat plants by the application of the products: in this case, the evaluation scale varies from 0 (completely healthy plant) to 100 (completely necrotized plant).

CC1CC(C)(C)c2cccc(NC(=O)c3cn(C)nc3C(F)F)c21 (stereo not drawn) [CR-1, 3-difluoromethyl-1-methyl-N-(1,1,3-trimethyl-4-indanyl)-4-pyrazolecarboxamide]
Activity NT (parts which had developed during the test) (Erysiphe graminis): 65 | Activity T (parts treated directly with the products) (Erysiphe graminis): 70 | Phytotoxicity (wheat plants): 10

Cc1c(C(=O)Nc2ccc(F)c3c2CCC3(C)C)c(C(F)(F)F)nn1C [CR-2, 1,5-dimethyl-3-trifluoro-methyl-N-(1,1-dimethyl-7-fluoro-4-indanyl)-4-pyrazolecarboxamide]
Activity NT (parts which had developed during the test) (Erysiphe graminis): 15 | Activity T (parts treated directly with the products) (Erysiphe graminis): 25 | Phytotoxicity (wheat plants): 0

Cc1nn(C)c(C)c1C(=O)Nc1c(F)ccc2c1CCC2(C)C [CR-3, 1,3,5-trimethyl-N-(1,1-dimethyl-5-fluoro-4-indanyl)-4-pyrazolecarboxamide]
Activity NT (parts which had developed during the test) (Erysiphe graminis): 0 | Activity T (parts treated directly with the products) (Erysiphe graminis): 10 | Phytotoxicity (wheat plants): 0

CC1CC(C)(C)c2c(F)ccc(NC(=O)c3cn(C)nc3C(F)F)c21 (stereo not drawn) [Compound N. 1, 3-difluoromethyl-N-(7-fluoro-1,1,3-trimethyl-4-indanyl)-1-methyl-4-pyrazolecarboxamide]
Activity NT (parts which had developed during the test) (Erysiphe graminis): 90 | Activity T (parts treated directly with the products) (Erysiphe graminis): 95 | Phytotoxicity (wheat plants): 0
